Test results: patent publication US5556744A, “Methods and compositions for diagnosing and treating certain HIV infected patients” (The Trustees of the University of Pennsylvania, priority 1994, dated 1996)

Key:
[1] = tested on: maternal sera (antibodies); test: ELISA peptide-binding of maternal sera (Example 6); design: species or system human; settings: for Number of Non-Transmitters which bound to peptide / Percent of Non-Transmitters which bound to peptide: N = 12; for Number of Transmitters which bound to peptide / Percent of Transmitters which bound to peptide: N = 4
How it was run: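 Third-trimester maternal sera, from HIV-1 transmitting and non-transmitting mothers, were tested by ELISA against ~16-residue peptides spanning HIV-1 external and transmembrane glycoproteins. Each serum was run with at least 40 peptides, and values are the percentage of sera binding each peptide.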

[2] = tested on: maternal HIV+ sera (antibodies); test: RIA / ELISA binding of maternal HIV+ sera to gp120 and gp41 peptides (Example 3); design: species or system human
How it was run: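 Peptides were coated at 10 μg/ml in carbonate buffer pH 9.6 and blocked with 1% BSA. Sera at 1:50 and 1:500 were incubated overnight at 4°C and detected with ¹²⁵I anti-human IgG (RIA) or HRP/TMB at OD450 (ELISA). Specific binding was taken as peptide minus no-peptide wells, scored as a ratio to normal human serum.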

[3] = Serum No. 1, Non-Transmission Group
[4] = Serum No. 2, Non-Transmission Group
[5] = Serum No. 3, Non-Transmission Group
[6] = Serum No. 4, Transmission Group
[7] = Serum No. 5, Transmission Group
[8] = Serum No. 6, Non-Transmission Group
[9] = Serum No. 7, Non-Transmission Group
[10] = Serum No. 8, Non-Transmission Group
[11] = Serum No. 9, Non-Transmission Group
[12] = Serum No. 10, Transmission Group
[13] = Serum No. 11, Non-Transmission Group
[14] = Serum No. 12, Non-Transmission Group
[15] = Serum No. 13, Transmission Group
[16] = Serum No. 14, Transmission Group
[17] = Serum No. 15, Transmission Group
[18] = Serum No. 16, Non-Transmission Group
[19] = Serum No. 17, Non-Transmission Group
[20] = Serum No. 18, Non-Transmission Group
[21] = Serum No. 19, Transmission Group
[22] = Serum No. 20, Non-Transmission Group

Sequence | Number of Non-Transmitters which bound to peptide [1] | Percent of Non-Transmitters which bound to peptide [1] | Number of Transmitters which bound to peptide [1] | Percent of Transmitters which bound to peptide [1] | Binding of maternal HIV+ serum to peptide (sera/NHS ratio) [2, 3] | Binding of maternal HIV+ serum to peptide (sera/NHS ratio) [2, 4] | Binding of maternal HIV+ serum to peptide (sera/NHS ratio) [2, 5] | Binding of maternal HIV+ serum to peptide (sera/NHS ratio) [2, 6] | Binding of maternal HIV+ serum to peptide (sera/NHS ratio) [2, 7] | Binding of maternal HIV+ serum to peptide (sera/NHS ratio) [2, 8] | Binding of maternal HIV+ serum to peptide (sera/NHS ratio) [2, 9] | Binding of maternal HIV+ serum to peptide (sera/NHS ratio) [2, 10] | Binding of maternal HIV+ serum to peptide (sera/NHS ratio) [2, 11] | Binding of maternal HIV+ serum to peptide (sera/NHS ratio) [2, 12] | Binding of maternal HIV+ serum to peptide (sera/NHS ratio) [2, 13] | Binding of maternal HIV+ serum to peptide (sera/NHS ratio) [2, 14] | Binding of maternal HIV+ serum to peptide (sera/NHS ratio) [2, 15] | Binding of maternal HIV+ serum to peptide (sera/NHS ratio) [2, 16] | Binding of maternal HIV+ serum to peptide (sera/NHS ratio) [2, 17] | Binding of maternal HIV+ serum to peptide (sera/NHS ratio) [2, 18] | other results
NYTSLIHSLIEESQNQ [Peptide 41] | 0 | 0% | 0 | 0% | - (specific OD450 or cpm of sera sample binding to peptide divided by the specific OD450 or cpm of NHS sample binding to peptide, which value is less than 2) | - (specific OD450 or cpm of sera sample binding to peptide divided by the specific OD450 or cpm of NHS sample binding to peptide, which value is less than 2) | - (specific OD450 or cpm of sera sample binding to peptide divided by the specific OD450 or cpm of NHS sample binding to peptide, which value is less than 2) | - (specific OD450 or cpm of sera sample binding to peptide divided by the specific OD450 or cpm of NHS sample binding to peptide, which value is less than 2) | - (specific OD450 or cpm of sera sample binding to peptide divided by the specific OD450 or cpm of NHS sample binding to peptide, which value is less than 2) | - (specific OD450 or cpm of sera sample binding to peptide divided by the specific OD450 or cpm of NHS sample binding to peptide, which value is less than 2) | - (specific OD450 or cpm of sera sample binding to peptide divided by the specific OD450 or cpm of NHS sample binding to peptide, which value is less than 2) | - (specific OD450 or cpm of sera sample binding to peptide divided by the specific OD450 or cpm of NHS sample binding to peptide, which value is less than 2) | - (specific OD450 or cpm of sera sample binding to peptide divided by the specific OD450 or cpm of NHS sample binding to peptide, which value is less than 2) | - (specific OD450 or cpm of sera sample binding to peptide divided by the specific OD450 or cpm of NHS sample binding to peptide, which value is less than 2) | - (specific OD450 or cpm of sera sample binding to peptide divided by the specific OD450 or cpm of NHS sample binding to peptide, which value is less than 2) | - (specific OD450 or cpm of sera sample binding to peptide divided by the specific OD450 or cpm of NHS sample binding to peptide, which value is less than 2) | - (specific OD450 or cpm of sera sample binding to peptide divided by the specific OD450 or cpm of NHS sample binding to peptide, which value is less than 2) | - (specific OD450 or cpm of sera sample binding to peptide divided by the specific OD450 or cpm of NHS sample binding to peptide, which value is less than 2) | - (specific OD450 or cpm of sera sample binding to peptide divided by the specific OD450 or cpm of NHS sample binding to peptide, which value is less than 2) | - (specific OD450 or cpm of sera sample binding to peptide divided by the specific OD450 or cpm of NHS sample binding to peptide, which value is less than 2) | Binding of maternal HIV+ serum to peptide (sera/NHS ratio) [2, 19]: - (specific OD450 or cpm of sera sample binding to peptide divided by the specific OD450 or cpm of NHS sample binding to peptide, which value is less than 2); Binding of maternal HIV+ serum to peptide (sera/NHS ratio) [2, 20]: - (specific OD450 or cpm of sera sample binding to peptide divided by the specific OD450 or cpm of NHS sample binding to peptide, which value is less than 2); Binding of maternal HIV+ serum to peptide (sera/NHS ratio) [2, 21]: - (specific OD450 or cpm of sera sample binding to peptide divided by the specific OD450 or cpm of NHS sample binding to peptide, which value is less than 2); Binding of maternal HIV+ serum to peptide (sera/NHS ratio) [2, 22]: - (specific OD450 or cpm of sera sample binding to peptide divided by the specific OD450 or cpm of NHS sample binding to peptide, which value is less than 2)
WGIKQLQARILAVER [Peptide 120] | 0 | 0% | 0 | 0% | - (specific OD450 or cpm of sera sample binding to peptide divided by the specific OD450 or cpm of NHS sample binding to peptide, which value is less than 2) | - (specific OD450 or cpm of sera sample binding to peptide divided by the specific OD450 or cpm of NHS sample binding to peptide, which value is less than 2) | - (specific OD450 or cpm of sera sample binding to peptide divided by the specific OD450 or cpm of NHS sample binding to peptide, which value is less than 2) | - (specific OD450 or cpm of sera sample binding to peptide divided by the specific OD450 or cpm of NHS sample binding to peptide, which value is less than 2) | - (specific OD450 or cpm of sera sample binding to peptide divided by the specific OD450 or cpm of NHS sample binding to peptide, which value is less than 2) | - (specific OD450 or cpm of sera sample binding to peptide divided by the specific OD450 or cpm of NHS sample binding to peptide, which value is less than 2) | - (specific OD450 or cpm of sera sample binding to peptide divided by the specific OD450 or cpm of NHS sample binding to peptide, which value is less than 2) | - (specific OD450 or cpm of sera sample binding to peptide divided by the specific OD450 or cpm of NHS sample binding to peptide, which value is less than 2) | - (specific OD450 or cpm of sera sample binding to peptide divided by the specific OD450 or cpm of NHS sample binding to peptide, which value is less than 2) | - (specific OD450 or cpm of sera sample binding to peptide divided by the specific OD450 or cpm of NHS sample binding to peptide, which value is less than 2) | - (specific OD450 or cpm of sera sample binding to peptide divided by the specific OD450 or cpm of NHS sample binding to peptide, which value is less than 2) | - (specific OD450 or cpm of sera sample binding to peptide divided by the specific OD450 or cpm of NHS sample binding to peptide, which value is less than 2) | - (specific OD450 or cpm of sera sample binding to peptide divided by the specific OD450 or cpm of NHS sample binding to peptide, which value is less than 2) | - (specific OD450 or cpm of sera sample binding to peptide divided by the specific OD450 or cpm of NHS sample binding to peptide, which value is less than 2) | - (specific OD450 or cpm of sera sample binding to peptide divided by the specific OD450 or cpm of NHS sample binding to peptide, which value is less than 2) | - (specific OD450 or cpm of sera sample binding to peptide divided by the specific OD450 or cpm of NHS sample binding to peptide, which value is less than 2) | Binding of maternal HIV+ serum to peptide (sera/NHS ratio) [2, 19]: - (specific OD450 or cpm of sera sample binding to peptide divided by the specific OD450 or cpm of NHS sample binding to peptide, which value is less than 2); Binding of maternal HIV+ serum to peptide (sera/NHS ratio) [2, 20]: - (specific OD450 or cpm of sera sample binding to peptide divided by the specific OD450 or cpm of NHS sample binding to peptide, which value is less than 2); Binding of maternal HIV+ serum to peptide (sera/NHS ratio) [2, 21]: - (specific OD450 or cpm of sera sample binding to peptide divided by the specific OD450 or cpm of NHS sample binding to peptide, which value is less than 2); Binding of maternal HIV+ serum to peptide (sera/NHS ratio) [2, 22]: - (specific OD450 or cpm of sera sample binding to peptide divided by the specific OD450 or cpm of NHS sample binding to peptide, which value is less than 2)
